Paper PMC7501296, “Rapid and direct control of target protein levels with VHL-recruiting dTAG molecules” (Nature Communications, 2020)
Several values for one entry are separate records, joined by “and”; a condition that tells them apart may be missing. Identical values can stand only once.

Columns and labels:
Type in all cases: cell-based
[1] = test system: EWS502 FKBP12^F36V-EWS/FLI; EWS/FLI^−/− cells; assay: Relative growth of EWS502 FKBP12F36V-EWS/FLI; EWS/FLI-/- cells (CellTiter-Glo); details: for Relative growth (luminescence values relative to day 0): EWS502 FKBP12F36V-EWS/FLI, EWS/FLI-/-; for Antiproliferation (relative growth): replicate values; for Antiproliferative effects upon EWS/FLI degradation: longer time-points
Protocol: (§1) Cell viability was assayed in 2D-adherent or ultra-low adherent 3D-spheroids using CellTiter-Glo (Promega)[6],[15]. Luminescence was measured on an Envision 2104 plate reader (PerkinElmer) and Fluostar Omega Reader (BMG Labtech) and data was analyzed using GraphPad PRISM v8. Synergy assessments were performed using CellTiter-Glo (Promega) with the following modifications to the protocol described in the ref. [34]. In brief, EWS502 cells were plated at 1000 cells per well in 50 µL of appropriate media in 384-well white culture plates (Corning) allowed to adhere overnight, and 100 nL of compounds were added using a Janus Workstation pin tool (PerkinElmer) for 72 h. Cell viability was measured by addition of 10 µL of CellTiter-glo (Promega), followed by incubation for 15 minutes at room temperature. Luminescence was measured on an Envision 2104 plate reader (PerkinElmer) and data was analyzed using GraphPad PRISM v8.

[2] = test system: EWS502 FKBP12^F36V-GFP cells; assay: Relative growth of EWS502 FKBP12F36V-GFP cells (CellTiter-Glo)
Protocol: as §1

FKBP12^F36V-GFP = target: T1, FKBP12^F36V-GFP (Homo sapiens, UniProt P62942, F37V); assay: Immunoblot of EWS502 FKBP12F36V-GFP cells; details: 24 h
T1 construct: expressed in transfected cells; host or cells: EWS502 (lentiviral pLEX_305-dTAG-GFP)
Protocol: To generate 293T^WT FKBP12^F36V-KRAS^G12V and 293T^VHL−/− FKBP12^F36V-KRAS^G12V cells, concentrated lentiviral supernatants[6] were applied to 293T^WT and 293T^VHL−/− cells[33] in the presence of 4 µg mL^−1 polybrene and transduced cell lines were selected with 2 µg mL^−1 puromycin. To generate EWS502 FKBP12^F36V-GFP cells, EWS502 cells were transduced with pLEX_305-dTAG-GFP lentiviral supernatant and selected with 1 µg mL^−1 puromycin. To generate EWS502 FKBP12^F36V-EWS/FLI; EWS/FLI^−/− cells, EWS502 cells were co-transduced with pLEX_305-dTAG-EWS/FLI and lentiCRISPR v2-Blast-sgFLI_Ex9 lentiviral supernatants. Cells were then selected with both 1 µg mL^−1 puromycin (pLEX_305-dTAG-EWS/FLI) and 5 µg mL^−1 blasticidin (lentiCRISPR v2-Blast-sgFLI_Ex9). Knockout of endogenous EWS/FLI and the expression of exogenous FKBP12^F36V-EWS/FLI were confirmed by immunoblot and pooled transduced cell populations were employed for this study. […]
PATU-8902 LACZ-FKBP12^F36V and FKBP12^F36V-KRAS^G12V; KRAS^−/− cells and 293T cells were lysed with RIPA buffer supplemented with cOmplete protease inhibitors (Roche), PhosSTOP phosphatase inhibitors (Roche), and 0.1% benzonase (Novagen). […] Membranes were washed three times with TBS-T, incubated with the appropriate fluorescently labeled infrared secondary antibodies, washed again three times with TBS-T, and assessed using an Odyssey CLx Imager (LI-COR)[6],[15]. […]

T1 sequence (P62942 2-108 F37V limits assumed): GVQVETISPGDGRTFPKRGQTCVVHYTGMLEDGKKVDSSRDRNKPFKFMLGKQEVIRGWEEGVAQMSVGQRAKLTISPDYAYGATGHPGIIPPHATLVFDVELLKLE

SMILES | Relative growth (luminescence values relative to day 0) ([1]; day 0, technical replicates) | Relative growth (luminescence values relative to day 0) ([1]; day 3, technical replicates) | Relative growth (luminescence values relative to day 0) ([1]; day 5, technical replicates) | Relative growth (luminescence values relative to day 0) ([1]; day 7, technical replicates) | Antiproliferation (relative growth) ([1]; Time 0 days) | Antiproliferation (relative growth) ([1]; Time 3 days) | Antiproliferation (relative growth) ([1]; Time 5 days) | Antiproliferation (relative growth) ([1]; Time 7 days) | Antiproliferative effects upon EWS/FLI degradation [1] | Relative growth (luminescence values relative to day 0) ([2]; day 0, technical replicates) | Relative growth (luminescence values relative to day 0) ([2]; day 3, technical replicates) | Relative growth (luminescence values relative to day 0) ([2]; day 5, technical replicates) | Relative growth (luminescence values relative to day 0) ([2]; day 7, technical replicates) | FKBP12F36V-GFP degradation, immunoblot (FKBP12^F36V-GFP)
CCC(C(=O)N1CCCCC1C(=O)OC(CCc1ccc(OC)c(OC)c1)c1ccccc1OCC(=O)NCCCCCCC(=O)NC(C(=O)N1CC(O)CC1C(=O)NC(C)c1ccc(-c2scnc2C)cc1)C(C)(C)C)c1cc(OC)c(OC)c(OC)c1 (stereo not shown) [dTAG^V-1-NEG] | 0.9945 and 0.95 and 1.001 and 0.9766 and 1.051 and 1.053 and 1.003 and 0.9709 | 5.114 and 5.468 and 5.612 and 5.24 and 5.293 and 5.6444 and 5.751 and 5.436 | 9.983 and 9.4493 and 9.47 and 9.104 and 8.952 and 10.1487 and 8.526 and 9.042 | 11.0059 and 11.6763 and 12.0315 and 12.3084 and 11.8629 and 11.627 and 12.7076 and 12.9032 | 0.9369 and 1.039 and 1.049 and 1.03 and 0.9405 and 1.006 and 0.9678 and 1.0315 | 6.723 and 6.994 and 7.2 and 7.295 and 6.686 and 6.901 and 6.814 and 7.587 | 15.6789 and 14.8903 and 15.2182 and 14.1831 and 15.4702 and 12.9669 and 13.0283 and 13.2307 | 17.0897 and 17.8515 and 16.9942 and 16.7495 and 17.7706 and 16.0177 and 15.7257 and 18.5474 | absent | 0.9807 and 0.9337 and 1.074 and 0.9661 and 0.9369 and 1.05 and 0.936 and 1.123 | 8.012 and 8.414 and 8.126 and 8.231 and 8.041 and 7.9927 and 8.641 and 7.789 | 16.2325 and 15.4561 and 17.0235 and 15.0335 and 14.9405 and 13.797 and 14.8812 and 15.4178 | 19.7372 and 19.9296 and 22.6222 and 21.4195 and 20.5619 and 20.5847 and 22.7467 and 21.3128 | –
CC[C@H](C(=O)N1CCCC[C@H]1C(=O)O[C@H](CCc1ccc(OC)c(OC)c1)c1ccccc1OCC(=O)NCCCCCCC(=O)N[C@H](C(=O)N1C[C@H](O)C[C@H]1C(=O)N[C@@H](C)c1ccc(-c2scnc2C)cc1)C(C)(C)C)c1cc(OC)c(OC)c(OC)c1 [dTAG^V-1] | 0.8696 and 1.038 (2×) and 1.097 and 0.9086 and 1.006 and 0.975 and 1.069 | 3.17 and 3.081 and 3.35 and 3.515 and 3.02 and 3.212 and 3.235 and 3.093 | 3.571 and 3.881 and 3.894 and 3.809 and 3.6579 and 3.634 and 3.713 and 3.678 | 4.1 and 3.846 and 4.015 and 4.459 and 4.182 and 3.984 and 3.963 and 4.228 | 1.031 and 1.006 and 0.9491 and 0.9896 and 1.023 and 0.9889 and 1.015 and 0.9988 | 3.562 and 3.604 and 3.659 and 3.498 and 3.439 and 4 and 3.9346 and 3.855 | 4.651 and 4.613 and 4.429 and 4.423 and 4.852 and 4.574 and 4.874 and 4.602 | 4.558 and 4.146 and 4.393 and 4.598 and 4.588 and 4.347 and 4.317 and 4.895 | Potent antiproliferative effects | 1.01 and 0.9846 and 0.9416 and 1.081 and 0.9895 and 0.8796 and 1.056 and 1.058 | 7.436 and 7.522 and 7.571 and 8.146 and 7.791 and 7.539 and 7.5229 and 8.295 | 12.9905 and 13.8226 (2×) and 13.4717 and 14.0465 and 14.5379 and 14.3196 and 15.9343 | 19.3543 and 18.2942 and 18.0829 and 20.64 and 18.2038 and 18.0695 and 17.6427 and 20.3483 | effectively degraded
CC[C@H](C(=O)N1CCCC[C@H]1C(=O)O[C@H](CCc1ccc(OC)c(OC)c1)c1ccccc1OCC(=O)NCCCCCCOc1cccc2c1C(=O)N(C1CCC(=O)NC1=O)C2=O)c1cc(OC)c(OC)c(OC)c1 (stereo partly shown) [dTAG-13] | – | – | – | – | – | – | – | – | – | – | – | – | – | effectively degraded
